The nature of data set [1]: Microsomal stability assay, human liver microsomes. It counts as in vitro ADME. The note with it: for Mics (hu) comp remaining 60 min: 10 μM; for microsomal CLint at 10 µM: pooled liver microsomes, pH 7.4, read-out: Mics (hu) CLint. Background: Microsomes from liver hold many membrane-bound enzymes, among them those of drug oxidation.
Data set [2] in a line: Plasma protein binding, equilibrium dialysis, human plasma. It counts as in vitro ADME. To be noted: undiluted plasma, human plasma protein binding, read-out: PPB (hu) (converted). On the technique in general: In equilibrium dialysis only unbound substance equilibrates across the membrane.
A short description of data set [3]: Microsomal stability assay, mouse liver microsomes. The note with it: for Mics (m) comp remaining 60 min: 10 μM; for microsomal CLint at 10 µM: pooled liver microsomes, pH 7.4, read-out: Mics (m) CLint. The data set is classed as in vitro ADME.
Data set [4] in a line: Kinetic solubility in PBS. The data set is classed as physicochemical. To be noted: phosphate-buffered saline, pH 7.4, aqueous buffer, kinetic from dmso stock. The gist of the method: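 DMSO stocks diluted into PBS pH 7.4 to 100 μM and shaken 2 h at room temperature in duplicate, then filtered by centrifugation. Filtrates diluted 1:99 in 50% acetonitrile. Quantified by Echo-MS against calibration standards spanning 0.05–4 μM.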

Data set [5] in a line: in vitro. The note with it: human, plasma.
The nature of data set [6]: Plasma protein binding, mouse plasma. It counts as in vitro ADME. To be noted: mouse, plasma, mouse plasma protein binding; read-out: PPB (m) (converted).
Data set [7] is described as follows: in vitro. To be noted: mouse, plasma.
Data set [8] deals with T1, recombinant human CD73 (hCD73) (Homo sapiens, UniProt P21589).
T1 sequence (P21589 27-574): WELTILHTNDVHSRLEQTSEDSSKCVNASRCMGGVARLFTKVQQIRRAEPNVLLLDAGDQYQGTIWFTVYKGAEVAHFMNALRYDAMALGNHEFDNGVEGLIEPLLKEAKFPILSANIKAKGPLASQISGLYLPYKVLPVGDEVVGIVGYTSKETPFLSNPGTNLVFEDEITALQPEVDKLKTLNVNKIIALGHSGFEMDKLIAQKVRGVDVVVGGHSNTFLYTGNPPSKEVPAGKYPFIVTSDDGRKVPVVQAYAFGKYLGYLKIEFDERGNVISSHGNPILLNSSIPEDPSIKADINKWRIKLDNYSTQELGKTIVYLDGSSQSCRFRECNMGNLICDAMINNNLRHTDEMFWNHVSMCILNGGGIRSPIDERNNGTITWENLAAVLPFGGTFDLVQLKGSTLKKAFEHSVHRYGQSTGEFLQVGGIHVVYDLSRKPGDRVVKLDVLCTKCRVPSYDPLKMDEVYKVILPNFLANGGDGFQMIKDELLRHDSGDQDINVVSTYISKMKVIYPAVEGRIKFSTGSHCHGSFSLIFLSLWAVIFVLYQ
Kind of data set: CD73 activity assay on recombinant human CD73. The data set is classed as biochemical. To be noted: ΔGexp = RT ln Ki.

In data set [9] the test system is HeLa S3. Kind of data set: In vitro cytotoxic activity. The data set is classed as cell-based. The note with it: Homo sapiens. As for the experimental part:
(§1) All the compounds were also tested for their in vitro cytotoxic activity on a small panel of four cancer cell lines (CCRF-CEM, HepG2, HeLa S3, HL-60) and nonmalignant human dermal fibroblasts (NHDF).

The subject of data set [10] is nonmalignant human dermal fibroblasts (NHDF). Kind of data set: In vitro cytotoxic activity. The data set is classed as cell-based. The protocol:
as §1

The test system of data set [11] is HL-60. Kind of data set: In vitro cytotoxic activity. The note with it: Homo sapiens. It counts as cell-based. The protocol:
as §1

Data set [12] relates to HepG2. Kind of data set: In vitro cytotoxic activity. It counts as cell-based. To be noted: Homo sapiens. The protocol: as §1
The test system of data set [13] is CCRF-CEM. Kind of data set: In vitro cytotoxic activity. It counts as cell-based. To be noted: Homo sapiens. As for the experimental part:
as §1

pIC50: −log10 of the molar value. Values after ≈ are worked out from the molar mass of the structure shown.

Turning to `O=P(O)(O)CP(=O)(O)OC[C@H]1O[C@@H](n2ccc3c(-c4ccc5cnccc5c4)ncnc32)[C@H](O)[C@@H]1O` [4A.21], the “Mics (hu) comp remaining 60 min” value in data set [1] was determined as 95%. The microsomal CLint at 10 µM in data set [1] is 3 µL/min/mg; in [3], 8 µL/min/mg. The results for the fraction unbound at 4 h, 100 µM in [2] and in [6] were 0.054 and 0.737, respectively. Further, the “Mics (m) comp remaining 60 min” value in [3] is reported as 79%. Also, the solubility (in general, the dissolved amount per volume that the medium holds) at 2 h in data set [4] was greater than 100 µM. The half-life at 10 µM in data set [5] and in [7] was greater than 2 h in each case. Besides, in data set [8], the “dG_exp, experimental binding free energy” value is reported as “–13.1 kcal/mol”. The pIC50 – broadly, the IC50 on a negative log10 scale, so that one unit is a factor of ten – in data set [9] is less than 5.00; in data set [10], less than 5.00; in data set [11] it was 5.23; in data set [12], less than 5.00; in data set [13], less than 5.00.

As for `Nc1nc(-c2cccc3c2CCCC3)c2ccn([C@@H]3O[C@H](COP(=O)(O)CP(=O)(O)O)[C@@H](O)[C@H]3O)c2n1` [11C.12], in data set [1], the “Mics (hu) comp remaining 60 min” value was determined as 101%. Also, the microsomal CLint at 10 µM in data set [1] and in data set [3] was less than 1 µL/min/mg in each case. In addition, the figures for the fraction unbound at 4 h, 100 µM in data set [2] and in data set [6] were 0.157 and 0.445, respectively. Further, the “Mics (m) comp remaining 60 min” value in [3] is listed as 100%. The compound further registered a solubility at 2 h in data set [4] of 88 µM (≈ 48.8 µg/mL). Also, the half-life at 10 µM in [5] and in [7] was greater than 2 h in each case. The “dG_exp, experimental binding free energy” value in data set [8] is “–13.9 kcal/mol”. Besides, the pIC50 in data set [9], in data set [10], in data set [11], in data set [12] and in [13] was less than 5.00 throughout.

With `O=P(O)(O)CP(=O)(O)OC[C@H]1O[C@@H](n2ccc3c(-c4cccc5c4OCCC5)ncnc32)[C@H](O)[C@@H]1O` [4A.13], in data set [1], the “Mics (hu) comp remaining 60 min” value is 96%. Further, the microsomal CLint at 10 µM in data set [1] and in data set [3] was 1 µL/min/mg throughout. Moreover, the values for the fraction unbound at 4 h, 100 µM in data set [2] and in [6] were 0.108 and 0.594, respectively. Also, the “Mics (m) comp remaining 60 min” value in [3] came to 94%. Moreover, the concentration in solution in [4] (solubility at 2 h) was 81 µM (≈ 43.9 µg/mL). The half-life at 10 µM in data set [5] and in data set [7] was greater than 2 h each time. Also, the “dG_exp, experimental binding free energy” value in data set [8] is reported as “–12.8 kcal/mol”. Further, the pIC50 in data set [9], in data set [10], in data set [11], in [12] and in data set [13] was less than 5.00 in each case.

`Nc1ccc(-c2nc(Cl)nc3c2ccn3[C@@H]2O[C@H](COP(=O)(O)CP(=O)(O)O)[C@@H](O)[C@H]2O)c2ccccc12` [7B.33]: the “Mics (hu) comp remaining 60 min” value in [1] was 109%. The microsomal CLint at 10 µM in data set [1] and in [3] was less than 2 µL/min/mg in each case. In addition, the values for the fraction unbound at 4 h, 100 µM in data set [2] and in [6] were no more than 0.01 and 0.374, respectively. The same compound showed a solubility at 2 h in [4] greater than 100 µM. The half-life at 10 µM in data set [5] and in [7] was greater than 2 h in each case. Further, the “dG_exp, experimental binding free energy” value in data set [8] is on record as “–14.1 kcal/mol”. The pIC50 was 5.06 in data set [9]; 5.06 in data set [10]; 5.04 in data set [11]; 5.10 in [12]; 5.02 in [13].

`O=P(O)(O)CP(=O)(O)OC[C@H]1O[C@@H](n2ccc3c(-c4ccc5c(c4)CCO5)ncnc32)[C@H](O)[C@@H]1O` [4A.14]: the “Mics (hu) comp remaining 60 min” value in [1] is listed as 112%. Moreover, the microsomal CLint at 10 µM in [1] is less than 1 µL/min/mg; in [3], 3 µL/min/mg. Also, the fraction unbound at 4 h, 100 µM is 0.062 in data set [2] and 0.547 in [6]. In [3], the “Mics (m) comp remaining 60 min” value was 94%. The compound further registered a solubility at 2 h in data set [4] greater than 100 µM. The half-life at 10 µM in [5] and in data set [7] was greater than 2 h each time. Also, the “dG_exp, experimental binding free energy” value in data set [8] was “–12.9 kcal/mol”. Moreover, the pIC50 is less than 5.00 in [9]; 5.25 in data set [10]; 5.18 in data set [11]; 5.20 in [12]; less than 5.00 in [13].

On to `Cc1nc(-c2ccco2)c2ccn([C@@H]3O[C@H](COP(=O)(O)CP(=O)(O)O)[C@@H](O)[C@H]3O)c2n1` [18E.1], for which the “Mics (hu) comp remaining 60 min” value in data set [1] is listed as 100%. Moreover, the microsomal CLint at 10 µM in data set [1] was less than 1 µL/min/mg; in [3], 1 µL/min/mg. The fraction unbound at 4 h, 100 µM in data set [2] is 0.069; in [6], 0.816. Moreover, the “Mics (m) comp remaining 60 min” value in data set [3] is reported as 96%. This compound registered a solubility at 2 h in data set [4] of 89 µM (≈ 43.5 µg/mL). Further, the half-life at 10 µM in [5] and in [7] was greater than 2 h in each case. Moreover, the “dG_exp, experimental binding free energy” value in data set [8] is “–13.2 kcal/mol”. Also, the pIC50 in [9], in data set [10], in data set [11], in data set [12] and in [13] was less than 5.00 in each case.

With `CC1(C)Cc2cc(-c3nc(Cl)nc4c3ccn4[C@@H]3O[C@H](COP(=O)(O)CP(=O)(O)O)[C@@H](O)[C@H]3O)ccc2O1` [7B.30], the “Mics (hu) comp remaining 60 min” value in data set [1] was 102%. The microsomal CLint at 10 µM was less than 1 µL/min/mg in [1] and 6 µL/min/mg in data set [3]. Further, the fraction unbound at 4 h, 100 µM in data set [2] is no more than 0.01; in data set [6], 0.229. Besides, the “Mics (m) comp remaining 60 min” value in data set [3] turned out to be 88%. In data set [4], this compound displayed a solubility at 2 h of 86 µM (≈ 50.7 µg/mL). Also, the half-life at 10 µM in data set [5] and in data set [7] was greater than 2 h in each case. Further, the “dG_exp, experimental binding free energy” value in [8] is “–15.6 kcal/mol”. Further, the pIC50 in data set [9], in data set [10], in [11], in data set [12] and in data set [13] was less than 5.00 each time.

`O=P(O)(O)CP(=O)(O)OC[C@H]1O[C@@H](n2ccc3c(-c4ccc5ncccc5c4)ncnc32)[C@H](O)[C@@H]1O` [4A.19]: the “Mics (hu) comp remaining 60 min” value in data set [1] was determined as 94%. Besides, the microsomal CLint at 10 µM in [1] and in data set [3] was less than 1 µL/min/mg throughout. The fraction unbound at 4 h, 100 µM in data set [2] is 0.048; in data set [6], 0.685. In [3], the “Mics (m) comp remaining 60 min” value came out at 105%. In data set [4], this compound returned a solubility at 2 h of 85 µM (≈ 45.6 µg/mL). Besides, the half-life at 10 µM in data set [5] and in [7] was greater than 2 h throughout. Further, the “dG_exp, experimental binding free energy” value in data set [8] is “–12.7 kcal/mol”. Moreover, the pIC50 was less than 5.00 in data set [9]; less than 5.00 in data set [10]; 5.51 in [11]; less than 5.00 in data set [12]; less than 5.00 in data set [13].

`O=P(O)(O)CP(=O)(O)OC[C@H]1O[C@@H](n2ccc3c(-c4cc5ccccc5o4)nc(F)nc32)[C@H](O)[C@@H]1O` [14D.8]: the “Mics (hu) comp remaining 60 min” value in [1] is 107%. Besides, the microsomal CLint at 10 µM in data set [1] and in data set [3] was less than 1 µL/min/mg in each case. In addition, the figures for the fraction unbound at 4 h, 100 µM in data set [2] and in [6] were 0.008 and 0.286, respectively. In [4], this compound showed a solubility at 2 h of 76 µM (≈ 41.3 µg/mL). Also, the half-life at 10 µM in data set [5] and in [7] was greater than 2 h in each case. Further, the “dG_exp, experimental binding free energy” value in [8] is “–14.3 kcal/mol”. For the same compound, the pIC50 in data set [9], in data set [10], in data set [11], in data set [12] and in [13] was less than 5.00 in each case.

The values are drawn from paper PMC12797170, “Potent Competitive Inhibitors of Ecto-5′-nucleotidase (CD73) based on 6‑(Het)aryl-7-deazapurine Ribonucleoside 5′‑O‑Bisphosphonates” (ACS Pharmacology & Translational Science, 2025).
